Results as given in patent US20190000983A1, “AN EYE DROP SOLUTION FOR ENHANCED HYALURONIC ACID RETENTION AND DELIVERY” (THE JOHNS HOPKINS UNIVERSITY, priority 2015, published 2019).
Read-outs that look alike come from different tables or passages of the source. Ends that are not written are not given here.

Key:
[1] = system: rabbit conjunctiva tissue sections (sialic acid on mucin-1; collagen type I); conditions: for localisation of peptide staining on conjunctiva sections: biotin-conjugated peptide 1.0 mg/ml, compared with anti-mucin-1 / anti-collagen type I antibody
Protocol: To visualize binding of SABpep and ColBpep to the ocular surface, we performed immunohistochemistry with biotin-conjugated peptides on tissue section of rabbit conjunctiva. Conjunctival tissue dissected from rabbit eyes were fixed with 4% paraformaldehyde (PFA) solution (Electron Microscopy Sciences, Hatfield, Pa.), embedded and sectioned (thickness-5 μm) in paraffin. The sections were first incubated with biotin-conjugated peptides (1.0 mg/ml in PBS pH 7.4) for 1 h at room temperature, washed thrice with PBS and then stained with streptavidin-Texas Red conjugate (Vector Laboratories, CA) in accordance to manufacturer's protocol. The samples were then washed again three times, mounted with DAPI mounting medium (Vector Laboratories) and imaged with Zeiss Axio Imager 2 microscope (Carl Zeiss, Jena, Germany). Sections stained with only secondary antibody served as negative control. Mouse anti-mucin-1 primary antibody (Novus Biologicals, Littleton, Colo.) and mouse anti-collagen type I antibody (Abcam, Cambridge, Mass.) were used as replacements to SABpep and ColBpep in the positive controls, respectively, and stained with goat anti-mouse IgG secondary antibody (Life Technologies, NY).
To examine if SABpep binds specifically to sialic acid segment on the oligosaccharide chains, paraffin embedded and 4% PFA fixed rabbit conjunctiva tissue sections were stained with three different groups were selected (SABpep, sialidase treated+SABpep, SA+SABpep). Sections in the first group were stained with SABpep as described in the main text; sections in the second group were treated with sialidase (α2-3,6,8 Neuraminidase, 60 U/ml; New England Biolabs, Ipswich, Mass.) first for one hour at 37° C. before the addition of SABpep; and finally, sections in the third group were stained with SABpep pre-incubated with sialic acid (N-Acetylneuraminic acid, 100 mM; Carbosynth, Compton, Berkshire, UK) for one hour at room temperature. The staining procedure was the same in all three groups (streptavidin-fluorescein was used for detecting biotin conjugated SABpep; DAPI was used as counterstain for nuclei). The sections were imaged using Zeiss Axio Imager 2 microscope.

[2] = system: Rabbit conjunctival primary epithelial cells; assay: Live/dead staining and AlamarBlue cytotoxicity assessment; assay type: cell-based; conditions: 1.0 mg/ml, 24 h; data not shown
Protocol: Rabbit conjunctival primary epithelial cells were isolated as described previously in the main text. Cells were seeded in 96 well microplates for AlamarBlue assays (Life Technologies, NY) and live/dead staining at a density of 10,000 cells/cm^2. Cells were allowed to grow to about 90% confluence before experiments were carried out. Three different concentrations of HA-FL were tested: 1.0 mg/ml, 100 μg/ml and 10 μg/ml. SABpep and ColBpep were added to the medium for 24 h with a concentration of 1.0 mg/ml. Calcein AM and ethidium homodimer-1 (EthD-1; Life Technologies, NY) were used as live/dead staining agents according manufacture's manual, and cells were imaged using Zeiss Axio Imager 2 microscope. AlamarBlue assay was performed with quadruplets for every group. After 2 h incubation, the absorbance values at 570 nm on a Synergy 2 microplate reader were recorded.

conjunctiva tissue = assay: HABA assay: screening of biotin-conjugated ocular surface-binding peptides on conjunctival tissue; parameters: species or system rabbit; conditions: six peptides of Table 1, biotin-conjugated, 1.0 mg/mL in PBS, 20 min, compared to control
Source text: Conjunctival tissue from the ocular surface was targeted to test the binding affinity of the multiple peptides. Conjunctiva was harvested from rabbit eyes (Pel-Freez Biologicals, Rogers, Ariz.) with the underlying tenon's capsule removed, and then cut into 6 mm pieces with a biopsy punch. The conjunctival epithelium was kept intact for testing SABpep, while the epithelium was scrapped off with a cell scraper for testing type I collagen-binding peptide (ColBpep). The tissue pieces were merged in the biotin-conjugated peptide solutions (1.0 mg/mL in PBS, pH 7.4; Life Technologies, NY) for 20 minutes and then washed three times with PBS to remove any unbound peptides. A HABA (4′-hydroxyazobenzene-2-carboxylic acid) assay (Life Technologies, NY) was used to measure the amount of bound peptide (biotin), per manufacturer's instructions. An aqueous solution of biotin (1.0 mg/mL) without peptides was used as a negative control.

| Sequence | localisation of peptide staining on conjunctiva sections ([1]; 1 h, listed as SABpep-biotin) | staining of epithelium after preincubation of peptide with sialic acid ([1]; sialic acid 100 mM, 1 h, room temperature) | binding to conjunctival epithelium after sialidase digestion of the section ([1]; sialidase 60 U/ml, 1 h at 37° C. before staining) | cytotoxicity to epithelial cells [2] | amount of peptide bound to conjunctiva tissue (normalized to the dry weight) (conjunctiva tissue) | amount of peptide bound to conjunctiva tissue (normalized to the dry weight) (conjunctiva tissue; listed as peptide 3) | localisation of peptide staining on conjunctiva sections ([1]; 1 h, listed as ColBpep-biotin) | amount of peptide bound to conjunctiva tissue (normalized to the dry weight) (conjunctiva tissue; listed as peptide 6) |
| --- | --- | --- | --- | --- | --- | --- | --- | --- |
| GGSPYGRC (also: biotin, position not given here) [SABpep] | binds selectively to epithelial lining of conjunctiva | still stained the epithelium | could not bind to conjunctival epithelium | little to no cytotoxicity | the most promising candidates | bound the most |  |  |
| SYIRIADTNIT [ColBpep] |  |  |  | little to no cytotoxicity | the most promising candidates |  | binds to any collagen I on the tissue | bound the most |
